Measurements as given in patent US20180214428A1, “3-(1H-INDOL-2-YL)-1H-PYRAZOLO[3,4-B]PYRIDINES AND THERAPEUTIC USES THEREOF” (Samumed, LLC, priority 2015, published 2018).

Test system: IL-6
Assay: IL-6 inhibition in LPS-stimulated THP-1 monocytes (HTRF)
Assay type: cell-based, human
Details: Homo sapiens, THP-1 cells; for EC50: 500 ng/mL LPS, 22 h, HTRF IL-6 readout, 10-point dose-response from 10 μM; for inhibition at 10 µM: LPS stimulated, given only where EC50 >10 μM, top concentration 10 μM, read-out: percentage in parentheses beside EC50 >10 (IL-6 inhibition)
Procedure: Human monocyte cell line (THP-1 cells; Catalog # TIB-202, ATCC, Manassas, Va.) were cultured in Roswell Park Memorial Institute (RPMI) 1640 Medium (Catalog #21870-100, Buffalo, N.Y.) with 1% L-glutamine, 1% HEPES, 1% Sodium Pyruvate, 2% Sodium Bicarbonate supplemented with 100 units/mL penicillin, 50 μg/mL streptomycin, 2-mercaptoethanol (0.05 mM) [basal medium] and 10% fetal bovine serum (Catalog #16140089, Life Technologies, Carlsbad, Calif.) at 37° C. and 5% CO2.
THP-1 cells were cultured in basal media with 1% FBS for 24 hours before the start of the assay. Each compound was dissolved in DMSO as a 10 mM stock and used to prepare compound source plates. Serial dilution (1:3, 10-point dose-response curves starting from 10 μM) and compound transfer was performed using the ECHO 550 (Labcyte, Sunnyvale, Calif.) into 384-well white low volume assay plates (Greiner Bio-One) with appropriate DMSO backfill for a final DMSO concentration of 0.1%. THP-1 cells were plated at 5000 cells/well in the 384-well plates and incubated at 37° C. for 2 h. 500 ng/mL of LPS was added after 2 hours and cells were incubated for another 22 hours at 37° C. Plates were spun in a centrifuge for 1 minute at […] and a mixture of anti-IL6 XL665, and anti-IL6 Cryptate diluted in reconstitution buffer (Cisbio Inc.) was added to each well. Following incubation for 3 hrs at room temperature, Homogeneous Time-Resolved Fluorescence (HTRF) was measured using the Envision (Perkin Elmer) at 665 nm and […]. The ratio of fluorescence at 665 nm to 620 nm was used as a readout for IL6 quantification. All samples were processed in duplicate. Readings were normalized to DMSO treated cells and normalized activities were utilized for EC50 calculations using the dose-response log (inhibitor) vs. response variable slope (four parameters) nonlinear regression feature available in GraphPad Prism 5.0 (or Dotmatics). For EC50 of >10 μM, the percent inhibition at 10 μM is provided.

Structure (SMILES) | EC50 [µM] | inhibition at 10 µM [%]
Cc1ccncc1-c1cnc2[nH]nc(-c3cc4c(-c5ccc(F)cc5)cccc4[nH]3)c2c1 [Compound 27, 3-(4-(4-Fluorophenyl)-1H-indol-2-yl)-5-(4-methylpyridin-3-yl)-1H-pyrazolo[3,4-b]pyridine] | > 10 | 41.7
c1ccc(CNCc2cncc(-c3cnc4[nH]nc(-c5cc6c(-c7ccncc7)cccc6[nH]5)c4c3)c2)cc1 [Compound 116, N-Benzyl-1-(5-(3-(4-(pyridin-4-yl)-1H-indol-2-yl)-1H-pyrazolo[3,4-b]pyridin-5-yl)pyridin-3-yl)methanamine] | > 10 | 41.7
O=C(Nc1cncc(-c2cnc3[nH]nc(-c4cc5c(N6CCCCC6)cccc5[nH]4)c3c2)c1)c1ccccc1 [Compound 155, N-(5-(3-(4-(Piperidin-1-yl)-1H-indol-2-yl)-1H-pyrazolo[3,4-b]pyridin-5-yl)pyridin-3-yl)benzamide] | > 10 | 21.8
CCCC(=O)Nc1cncc(-c2cnc3[nH]nc(-c4cc5c(-c6cccc(F)c6)cccc5[nH]4)c3c2)c1 [Compound 14, N-(5-(3-(4-(3-Fluorophenyl)-1H-indol-2-yl)-1H-pyrazolo[3,4-b]pyridin-5-yl)pyridin-3-yl)butyramide] | > 10 | 20.3
Cc1ccncc1-c1cnc2[nH]nc(-c3cc4c(-c5cc(F)cc(CNS(C)(=O)=O)c5)cccc4[nH]3)c2c1 [Compound 455, N-(3-Fluoro-5-(2-(5-(4-methylpyridin-3-yl)-1H-pyrazolo[3,4-b]pyridin-3-yl)-1H-indol-4-yl)benzyl)methanesulfonamide] | > 10 | 54.8
CCCCC(=O)Nc1cncc(-c2cnc3[nH]nc(-c4cc5c(N6CCCCC6)cccc5[nH]4)c3c2)c1 [Compound 163, N-(5-(3-(4-(Piperidin-1-yl)-1H-indol-2-yl)-1H-pyrazolo[3,4-b]pyridin-5-yl)pyridin-3-yl)pentanamide] | > 10 | 43.2
CC(C)(C)C(=O)Nc1cncc(-c2cnc3[nH]nc(-c4cc5c(-c6ccoc6)cccc5[nH]4)c3c2)c1 [Compound 290, N-(5-(3-(4-(Furan-3-yl)-1H-indol-2-yl)-1H-pyrazolo[3,4-b]pyridin-5-yl)pyridin-3-yl)pivalamide] | > 10 | 31.2
CC(C)CC(=O)Nc1cncc(-c2cnc3[nH]nc(-c4cc5c(N6CCN(C)CC6)cccc5[nH]4)c3c2)c1 [Compound 202, 3-Methyl-N-(5-(3-(4-(4-methylpiperazin-1-yl)-1H-indol-2-yl)-1H-pyrazolo[3,4-b]pyridin-5-yl)pyridin-3-yl)butanamide] | > 10 | 0
Fc1cccc(-c2cccc3[nH]c(-c4n[nH]c5ncc(-c6ccncc6)cc45)cc23)c1 [Compound 15, 3-(4-(3-Fluorophenyl)-1H-indol-2-yl)-5-(pyridin-4-yl)-1H-pyrazolo[3,4-b]pyridine] | > 10 | 55.9
CC(C)(C)C(=O)Nc1cncc(-c2cnc3[nH]nc(-c4cc5c(-c6ccc(F)cc6)cccc5[nH]4)c3c2)c1 [Compound 30, N-(5-(3-(4-(4-Fluorophenyl)-1H-indol-2-yl)-1H-pyrazolo[3,4-b]pyridin-5-yl)pyridin-3-yl)pivalamide] | > 10 | 42.8
O=C(Nc1cncc(-c2cnc3[nH]nc(-c4cc5c(-c6cccc(F)c6)cccc5[nH]4)c3c2)c1)C1CCCCC1 [Compound 19, N-(5-(3-(4-(3-Fluorophenyl)-1H-indol-2-yl)-1H-pyrazolo[3,4-b]pyridin-5-yl)pyridin-3-yl)cyclohexanecarboxamide] | > 10 | 19.2
O=C(Nc1cncc(-c2cnc3[nH]nc(-c4cc5c(-c6ccccc6F)cccc5[nH]4)c3c2)c1)C1CCCC1 [Compound 66, N-(5-(3-(4-(2-Fluorophenyl)-1H-indol-2-yl)-1H-pyrazolo[3,4-b]pyridin-5-yl)pyridin-3-yl)cyclopentanecarboxamide] | 9.78 | –
O=C(Nc1cncc(-c2cnc3[nH]nc(-c4cc5c(-c6ccc(F)cc6)cccc5[nH]4)c3c2)c1)c1ccccc1 [Compound 32, N-(5-(3-(4-(4-Fluorophenyl)-1H-indol-2-yl)-1H-pyrazolo[3,4-b]pyridin-5-yl)pyridin-3-yl)benzamide] | > 10 | 17.7
O=C(Nc1cncc(-c2cnc3[nH]nc(-c4cc5c(-c6ccc(F)cc6)cccc5[nH]4)c3c2)c1)C1CCC1 [Compound 41, N-(5-(3-(4-(4-Fluorophenyl)-1H-indol-2-yl)-1H-pyrazolo[3,4-b]pyridin-5-yl)pyridin-3-yl)cyclobutanecarboxamide] | > 10 | 10.7

These reach a lower EC50. Values come first.

EC50 [µM] | Structure (SMILES) | inhibition at 10 µM [%]
0.019 | c1cncc(-c2cnc3[nH]nc(-c4cc5ccccc5[nH]4)c3c2)c1 [Compound 231, 3-(1H-Indol-2-yl)-5-(pyridin-3-yl)-1H-pyrazolo[3,4-b]pyridine] | –
3.9 | CN1CCN(c2cccc3[nH]c(-c4n[nH]c5ncc(-c6cncnc6)cc45)cc23)CC1 [Compound 227, 3-(4-(4-Methylpiperazin-1-yl)-1H-indol-2-yl)-5-(pyrimidin-5-yl)-1H-pyrazolo[3,4-b]pyridine] | –
0.103 | c1ccc(-c2cnc3[nH]nc(-c4cc5c(-c6ccncc6)cccc5[nH]4)c3c2)nc1 [Compound 120, 5-(Pyridin-2-yl)-3-(4-(pyridin-4-yl)-1H-indol-2-yl)-1H-pyrazolo[3,4-b]pyridine] | –
0.168 | c1ccc(COc2cncc(-c3cnc4[nH]nc(-c5cc6ncccc6[nH]5)c4c3)c2)cc1 [Compound 1006, 5-(5-(Benzyloxy)pyridin-3-yl)-3-(1H-pyrrolo[3,2-b]pyridin-2-yl)-1H-pyrazolo[3,4-b]pyridine] | –
0.69 | CS(=O)(=O)NCc1cc(F)cc(-c2cccc3[nH]c(-c4n[nH]c5ncc(-c6ccccn6)cc45)cc23)c1 [Compound 478, N-(3-Fluoro-5-(2-(5-(pyridin-2-yl)-1H-pyrazolo[3,4-b]pyridin-3-yl)-1H-indol-4-yl)benzyl)methanesulfonamide] | –
4 | c1ccc(CNCc2cncc(-c3cnc4[nH]nc(-c5cc6ccccc6[nH]5)c4c3)c2)cc1 [Compound 250, 1-(5-(3-(1H-Indol-2-yl)-1H-pyrazolo[3,4-b]pyridin-5-yl)pyridin-3-yl)-N-benzylmethanamine] | –
4.17 | c1cc(-c2ccncc2)c2cc(-c3n[nH]c4ncc(-c5ccncc5)cc34)[nH]c2c1 [Compound 111, 5-(Pyridin-4-yl)-3-(4-(pyridin-4-yl)-1H-indol-2-yl)-1H-pyrazolo[3,4-b]pyridine] | –
1.21 | CC(C)C(=O)Nc1cncc(-c2cnc3[nH]nc(-c4cc5c(N6CCN(C)CC6)cccc5[nH]4)c3c2)c1 [Compound 209, N-(5-(3-(4-(4-Methylpiperazin-1-yl)-1H-indol-2-yl)-1H-pyrazolo[3,4-b]pyridin-5-yl)pyridin-3-yl)isobutyramide] | –
6.01 | c1ccc(CNCc2cncc(-c3cnc4[nH]nc(-c5cc6ncccc6[nH]5)c4c3)c2)cc1 [Compound 502, 1-(5-(3-(1H-Pyrrolo[3,2-b]pyridin-2-yl)-1H-pyrazolo[3,4-b]pyridin-5-yl)pyridin-3-yl)-N-benzylmethanamine] | –
0.303 | CC(C)(C)CC(=O)Nc1cncc(-c2cnc3[nH]nc(-c4cc5ccccc5[nH]4)c3c2)c1 [Compound 242, N-(5-(3-(1H-Indol-2-yl)-1H-pyrazolo[3,4-b]pyridin-5-yl)pyridin-3-yl)-3,3-dimethylbutanamide] | –
1.96 | Oc1cncc(-c2cnc3[nH]nc(-c4cc5c(-c6cccs6)cccc5[nH]4)c3c2)c1 [Compound 711, 5-(3-(4-(Thiophen-2-yl)-1H-indol-2-yl)-1H-pyrazolo[3,4-b]pyridin-5-yl) pyridin-3-ol] | –
4.64 | CC(C)(C)CC(=O)Nc1cncc(-c2cnc3[nH]nc(-c4cc5c(-c6ccccc6F)cccc5[nH]4)c3c2)c1 [Compound 61, N-(5-(3-(4-(2-Fluorophenyl)-1H-indol-2-yl)-1H-pyrazolo[3,4-b]pyridin-5-yl)pyridin-3-yl)-3,3-dimethylbutanamide] | –
0.015 | Fc1cccc(-c2cccc3[nH]c(-c4n[nH]c5ncc(-c6cccnc6)cc45)cc23)c1 [Compound 2, 3-(4-(3-Fluorophenyl)-1H-indol-2-yl)-5-(pyridin-3-yl)-1H-pyrazolo[3,4-b]pyridine] | –
0.106 | CN1CCN(c2cccc3[nH]c(-c4n[nH]c5ncc(-c6ccncc6)cc45)cc23)CC1 [Compound 218, 3-(4-(4-Methylpiperazin-1-yl)-1H-indol-2-yl)-5-(pyridin-4-yl)-1H-pyrazolo[3,4-b]pyridine] | –
